The values below come from ChEMBL document CHEMBL5321245, “Synthesis and Bioactivity of Isoflavones from Ficus carica and Some Non-Natural Analogues” (J Nat Prod, 2023).

pIC50: −log10 of the molar value. Converted amounts (≈) assume the structure as drawn. Bounds are passed on as bounds.

Common to all, as to format: functional
Assay [1] concerns Providencia stuartii. Put plainly: Antibacterial activity against Providencia stuartii ATCC29916 assessed as inhibition of bacterial growth incubated for 24 hrs by broth microdilution method. (In broth dilution the organism is exposed to a series of concentrations in liquid medium.)
In assay [2] the test system is Klebsiella pneumoniae. The assay is described as follows: Antibacterial activity against Klebsiella pneumoniae ATCC 11296 assessed as inhibition of bacterial growth incubated for 18 to 24 hrs by microdilution method. As to conditions: time 18-24 hrs.
For assay [3], the system named is Klebsiella pneumoniae. Put plainly: Antibacterial activity against Klebsiella pneumoniae KP63 assessed as inhibition of bacterial growth incubated for 18 to 24 hrs by microdilution method. The settings on record: time 18-24 hrs.
Assay [4] has as its system Klebsiella pneumoniae. The assay is described as follows: Antibacterial activity against Klebsiella pneumoniae KP63 assessed as inhibition of bacterial growth incubated for 18 to 24 hrs in presence of PAbetaN by microdilution method. As to conditions: time 18-24 hrs.
The subject of assay [5] is Klebsiella pneumoniae. The assay is described as follows: Antibacterial activity against Klebsiella pneumoniae ATCC 11296 assessed as inhibition of bacterial growth incubated for 18 to 24 hrs in presence of PAbetaN by microdilution method. The settings on record: time 18-24 hrs.
Assay [6] relates to Escherichia coli. The assay is described as follows: Antibacterial activity against Escherichia coli AG102 assessed as inhibition of bacterial growth incubated for 18 to 24 hrs by microdilution method. The settings on record: time 18-24 hrs.
Assay [7] concerns Escherichia coli. The assay is described as follows: Antibacterial activity against Escherichia coli AG102 assessed as inhibition of bacterial growth incubated for 18 to 24 hrs in the presence of PAbetaN by microdilution method. As to conditions: time 18-24 hrs.
The test system of assay [8] is Escherichia coli. Put plainly: Antibacterial activity against Escherichia coli ATCC 10536 assessed as inhibition of bacterial growth incubated for 18 to 24 hrs by microdilution method. The settings on record: time 18-24 hrs.
The test system of assay [9] is Escherichia coli. Put plainly: Antibacterial activity against Escherichia coli ATCC 10536 assessed as inhibition of bacterial growth incubated for 18 to 24 hrs in the presence of PAbetaN by microdilution method. The settings on record: time 18-24 hrs.
The subject of assay [10] is Providencia stuartii. Put plainly: Antibacterial activity against Providencia stuartii PS2636 assessed as inhibition of bacterial growth incubated for 18 to 24 hrs by microdilution method. The settings on record: time 18-24 hrs.
Assay [11] concerns Providencia stuartii. Put plainly: Antibacterial activity against Providencia stuartii PS2636 assessed as inhibition of bacterial growth incubated for 18 to 24 hrs in the presence of PAbetaN by microdilution method. As to conditions: time 18-24 hrs.
Assay [12] deals with Providencia stuartii. Put plainly: Antibacterial activity against Providencia stuartii NEA16 assessed as inhibition of bacterial growth incubated for 18 to 24 hrs by microdilution method. As to conditions: time 18-24 hrs.
In assay [13] the test system is Providencia stuartii. Put plainly: Antibacterial activity against Providencia stuartii NEA16 assessed as inhibition of bacterial growth incubated for 18 to 24 hrs in the presence of PAbN by microdilution method. As to conditions: time 18-24 hrs.
The test system of assay [14] is Pseudomonas aeruginosa. The assay is described as follows: Antibacterial activity against Pseudomonas aeruginosa PA01 assessed as inhibition of bacterial growth incubated for 18 to 24 hrs by microdilution method. The settings on record: time 18-24 hrs.
The subject of assay [15] is Pseudomonas aeruginosa. The assay is described as follows: Antibacterial activity against Pseudomonas aeruginosa PA01 assessed as inhibition of bacterial growth incubated for 18 to 24 hrs in the presence of PAbetaN by microdilution method. The settings on record: time 18-24 hrs.
The subject of assay [16] is Pseudomonas aeruginosa. Put plainly: Antibacterial activity against Pseudomonas aeruginosa PA124 assessed as inhibition of bacterial growth incubated for 18 to 24 hrs by microdilution method. As to conditions: time 18-24 hrs.
In assay [17] the test system is Pseudomonas aeruginosa. The assay is described as follows: Antibacterial activity against Pseudomonas aeruginosa PA124 assessed as inhibition of bacterial growth incubated for 18 to 24 hrs in the presence of PAbetaN by microdilution method. As to conditions: time 18-24 hrs.
Assay [18] has as its system Staphylococcus aureus. The assay is described as follows: Antibacterial activity against methicillin-resistant Staphylococcus aureus 4 assessed as inhibition of bacterial growth incubated for 18 to 24 hrs by microdilution method. The settings on record: time 18-24 hrs.
The test system of assay [19] is Staphylococcus aureus. The assay is described as follows: Antibacterial activity against methicillin-resistant Staphylococcus aureus 4 assessed as inhibition of bacterial growth incubated for 18 to 24 hrs in the presence of PAbetaN by microdilution method. As to conditions: time 18-24 hrs.
Assay [20] concerns Staphylococcus aureus. The assay is described as follows: Antibacterial activity against methicillin-resistant Staphylococcus aureus 6 assessed as inhibition of bacterial growth incubated for 18 to 24 hrs by microdilution method. The settings on record: time 18-24 hrs.
Assay [21] relates to Staphylococcus aureus. The assay is described as follows: Antibacterial activity against methicillin-resistant Staphylococcus aureus 6 assessed as inhibition of bacterial growth incubated for 18 to 24 hrs in the presence of PAbetaN by microdilution method. The settings on record: time 18-24 hrs.
Assay [22] has as its system Staphylococcus aureus. The assay is described as follows: Antibacterial activity against Staphylococcus aureus […] assessed as inhibition of bacterial growth incubated for 24 hrs by broth microdilution method.
The subject of assay [23] is Candida albicans. Put plainly: Antimicrobial activity against Candida albicans ATCC 2091 assessed as inhibition of microbial growth incubated for 48 hrs by broth microdilution method.
The test system of assay [24] is Meyerozyma guilliermondii. Put plainly: Antimicrobial activity against clinical isolate Candida guilliermondii assessed as inhibition of microbial growth incubated for 48 hrs by broth microdilution method.
The subject of assay [25] is Nannizzia gypsea. Put plainly: Antimicrobial activity against Microsporum gypseum E1420 assessed as inhibition of microbial growth incubated for 5 days by broth microdilution method. The settings on record: E1420, 120 h, time 5 day.
The subject of assay [26] is Enterococcus faecalis. The assay is described as follows: Antibacterial activity against Enterococcus faecalis ATCC10541 assessed as inhibition of bacterial growth incubated for 24 hrs by broth microdilution method.
For assay [27], the system named is CCRF-CEM. Put plainly: Cytotoxicity against drug sensitive human CCRF-CEM cells assessed as inhibition of cell growth at 10 uM incubated for 72 hrs by resazurin dye based assay relative to control. (Alamar Blue is a resazurin reagent that responds to reducing activity.)
Assay [28] concerns CCRF-CEM. Put plainly: Cytotoxicity against drug sensitive human CCRF-CEM cells assessed as inhibition of cell growth incubated for 72 hrs by resazurin dye based assay.
Assay [29] concerns ADR5000 cell line. The assay is described as follows: Cytotoxicity against multidrug resistant human CEM/ADR5000 cells overexpressing p-glycoprotein assessed as inhibition of cell growth incubated for 72 hrs by resazurin dye based assay. As to conditions: ADR5000, 72 h.

What is called MIC is the smallest concentration in the dilution series that meets the test's criterion for growth inhibition. The inhibition is the relative decrease from the control value, in per cent. What is called pIC50 is −log10 of the IC50, conventionally taken in molar units.

`COc1c(CC=C(C)C)c(O)cc2occ(-c3ccc4c(c3)OCO4)c(=O)c12`: the MIC in [1] is 25 µg/mL (≈ 65.7 µM).
Take `COc1cc2occ(-c3ccc(O)cc3)c(=O)c2c(OC)c1CC=C(C)C`: the MIC in [2] turned out to be 130 µg/mL (≈ 355 µM); in assay [3], 16 µg/mL (≈ 43.7 µM); in [4], 1 µg/mL; in assay [5] it was 2 µg/mL; in assay [6], 16 µg/mL (≈ 43.7 µM); in assay [7], 4 µg/mL. Besides, the minimum inhibitory concentration (MIC) worked out at 130 µg/mL (≈ 355 µM) in [8]; 2 µg/mL in assay [9]; 130 µg/mL (≈ 355 µM) in assay [10]; 4 µg/mL in [11]; 8 µg/mL (≈ 21.8 µM) in assay [12]; 1 µg/mL in assay [13]. The MIC was found to be 130 µg/mL (≈ 355 µM) in assay [14]; 130 µg/mL in assay [15]; 32 µg/mL (≈ 87.3 µM) in assay [16]; 4 µg/mL in assay [17]; 64 µg/mL (≈ 175 µM) in [18]; 32 µg/mL in assay [19]. Further, the MIC was 32 µg/mL (≈ 87.3 µM) in assay [20]; 32 µg/mL in assay [21]; not below 100 µg/mL in assay [1]; not below 100 µg/mL in [22]; 12.5 µg/mL in assay [23]; 12.5 µg/mL in assay [24]. For the same compound, the minimal inhibitory concentration (MIC) was 12.5 µg/mL in assay [25] and not below 100 µg/mL in [26]. Moreover, the inhibition at 10 µM in assay [27] is less than 50%.
On to `COc1cc2occ(-c3ccc4[nH]ccc4c3)c(=O)c2c(OC)c1CC=C(C)C`, for which the minimal inhibitory concentration (MIC) in [2] is 130 µg/mL (≈ 334 µM); in assay [3] it was more than 130 µg/mL; in assay [4], 1 µg/mL; in [5], 4 µg/mL; in assay [6] it was 130 µg/mL (≈ 334 µM); in [7], 64 µg/mL. The MIC in assay [8] came out at 130 µg/mL (≈ 334 µM); in assay [9], 130 µg/mL; in [10], 64 µg/mL (≈ 164 µM); in assay [11], 4 µg/mL; in [12], 130 µg/mL (≈ 334 µM); in [13], 8 µg/mL. Also, the MIC is 130 µg/mL (≈ 334 µM) in [14]; 8 µg/mL in assay [15]; more than 130 µg/mL in assay [16]; 2 µg/mL in [17]; more than 130 µg/mL in assay [18]; 4 µg/mL in assay [19]. Further, the MIC came to 32 µg/mL (≈ 82.2 µM) in assay [20] and 1 µg/mL in [21]. Moreover, the inhibition at 10 µM in assay [27] was less than 50%.
Take `COc1cc2occ(-c3ccc(C=O)cc3)c(=O)c2c(OC)c1CC=C(C)C`: the minimal inhibitory concentration (MIC) in assay [2] was more than 130 µg/mL; in [3], 130 µg/mL (≈ 344 µM); in assay [4], 2 µg/mL; in assay [5], 8 µg/mL; in assay [6], 130 µg/mL (≈ 344 µM); in assay [7], 8 µg/mL. Besides, the MIC in assay [8] was found to be 32 µg/mL (≈ 84.6 µM); in assay [9] it was 8 µg/mL; in [10], 130 µg/mL (≈ 344 µM); in [11], 16 µg/mL; in assay [12], 64 µg/mL (≈ 169 µM); in assay [13] it was 2 µg/mL. Besides, the MIC in assay [14] is 64 µg/mL (≈ 169 µM); in [15], 16 µg/mL; in assay [16], 130 µg/mL (≈ 344 µM); in assay [17] it was 8 µg/mL; in [18] it was 130 µg/mL (≈ 344 µM); in assay [19], 8 µg/mL. The MIC in assay [20] came to 130 µg/mL (≈ 344 µM); in assay [21] it was 64 µg/mL. For the same compound, the negative-log IC50 (pIC50) in assay [28] and in assay [29] was 4.70 throughout.
